From patent US11814367B2, “Inhibitors of glycogen synthase 1 (GYS1) and methods of use thereof” (Maze Therapeutics, Inc., priority 2021, dated 2023)

How the values were obtained:
[1] = biological target: hGYS1 enzyme (recombinant hGYS1/GN1 protein) (Homo sapiens (Human), UniProt P13807); test: GYS1 coupled enzyme assay (PK/LDH); assay type: biochemical; details: hGYS1/GN1 50 nM, UDP-Glucose 0.8 mM, G6P 1 mM; geometric mean of at least 2 runs
[2] = test system: hGYS1 enzyme / glycogen synthesis in HeLa cells; test: GYS1 cell based assay (glycogen synthesis, Glucose-glo); set-up: species or system human; details: Homo sapiens, HeLa, 24 h, 24 h incubation, 20 mM glucose, geometric mean of at least 2 runs
Summary of the method: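 HeLa cells starved 24 h in medium containing only 1× Glutamax were plated onto compound in medium with 20 mM glucose (1% DMSO final) for 24 h, 37 °C, 5% CO2. Acid lysates were Tris-quenched, glucoamylase-digested (pH 5.3, 1 h, 37 °C) and read by Glucose-glo luminescence. IC50 came from Hill fits, as geometric mean of ≥2 runs.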

[3] = biological target: hGYS2 enzyme (recombinant hGYS2/GN1 protein) (Homo sapiens (Human), UniProt P54840); test: GYS2 coupled enzyme assay (PK/LDH); assay type: biochemical; details: geometric mean of at least 2 assay runs on separate days, read-out: Avg_IC50
Summary of the method: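 Recombinant hGYS2/GN1 (200 nM) with 2 mM UDP-glucose, 0.2% rabbit liver glycogen, 2 mM glucose-6-phosphate; UDP coupled via PK/LDH (2 mM PEP, 0.6 mM NADH). Buffer 50 mM Tris pH 7.5, 2 mM MgCl2, 100 mM KCl, 2.5% DMSO. A340 slope over 10 min; IC50 from Hill fit of duplicates.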

Sequence of hGYS2 enzyme (recombinant hGYS2/GN1 protein) (P54840 whole entry): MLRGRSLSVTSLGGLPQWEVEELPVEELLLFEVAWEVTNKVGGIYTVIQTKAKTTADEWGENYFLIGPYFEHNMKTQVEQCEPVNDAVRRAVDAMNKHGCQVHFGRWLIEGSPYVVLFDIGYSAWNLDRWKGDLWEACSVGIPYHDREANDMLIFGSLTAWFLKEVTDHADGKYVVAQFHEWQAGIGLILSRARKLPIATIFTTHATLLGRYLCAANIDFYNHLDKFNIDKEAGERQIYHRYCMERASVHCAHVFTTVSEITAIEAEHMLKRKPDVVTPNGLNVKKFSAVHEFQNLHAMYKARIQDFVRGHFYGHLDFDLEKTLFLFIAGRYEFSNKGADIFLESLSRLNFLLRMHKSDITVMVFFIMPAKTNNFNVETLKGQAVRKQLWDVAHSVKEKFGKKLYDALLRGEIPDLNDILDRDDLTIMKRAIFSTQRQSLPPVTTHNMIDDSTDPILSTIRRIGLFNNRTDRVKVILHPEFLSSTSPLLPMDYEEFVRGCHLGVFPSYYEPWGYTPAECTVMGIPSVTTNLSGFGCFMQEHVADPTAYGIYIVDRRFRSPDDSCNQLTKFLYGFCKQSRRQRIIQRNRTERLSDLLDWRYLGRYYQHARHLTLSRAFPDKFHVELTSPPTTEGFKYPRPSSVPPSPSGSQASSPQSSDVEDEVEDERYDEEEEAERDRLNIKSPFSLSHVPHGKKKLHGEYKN
Sequence of hGYS2 enzyme (recombinant hGYS2/GN1 protein) (P46976 whole entry partner): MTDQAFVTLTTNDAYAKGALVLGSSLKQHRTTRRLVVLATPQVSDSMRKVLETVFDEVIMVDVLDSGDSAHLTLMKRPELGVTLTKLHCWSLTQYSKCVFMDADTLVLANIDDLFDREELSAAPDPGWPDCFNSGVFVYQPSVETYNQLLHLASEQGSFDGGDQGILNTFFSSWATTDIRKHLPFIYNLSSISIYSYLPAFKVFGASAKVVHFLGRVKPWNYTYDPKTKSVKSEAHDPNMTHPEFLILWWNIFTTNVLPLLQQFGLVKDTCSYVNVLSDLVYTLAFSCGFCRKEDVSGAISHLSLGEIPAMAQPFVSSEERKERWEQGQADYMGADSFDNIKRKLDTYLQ
Sequence of hGYS1 enzyme (recombinant hGYS1/GN1 protein) (P13807 whole entry): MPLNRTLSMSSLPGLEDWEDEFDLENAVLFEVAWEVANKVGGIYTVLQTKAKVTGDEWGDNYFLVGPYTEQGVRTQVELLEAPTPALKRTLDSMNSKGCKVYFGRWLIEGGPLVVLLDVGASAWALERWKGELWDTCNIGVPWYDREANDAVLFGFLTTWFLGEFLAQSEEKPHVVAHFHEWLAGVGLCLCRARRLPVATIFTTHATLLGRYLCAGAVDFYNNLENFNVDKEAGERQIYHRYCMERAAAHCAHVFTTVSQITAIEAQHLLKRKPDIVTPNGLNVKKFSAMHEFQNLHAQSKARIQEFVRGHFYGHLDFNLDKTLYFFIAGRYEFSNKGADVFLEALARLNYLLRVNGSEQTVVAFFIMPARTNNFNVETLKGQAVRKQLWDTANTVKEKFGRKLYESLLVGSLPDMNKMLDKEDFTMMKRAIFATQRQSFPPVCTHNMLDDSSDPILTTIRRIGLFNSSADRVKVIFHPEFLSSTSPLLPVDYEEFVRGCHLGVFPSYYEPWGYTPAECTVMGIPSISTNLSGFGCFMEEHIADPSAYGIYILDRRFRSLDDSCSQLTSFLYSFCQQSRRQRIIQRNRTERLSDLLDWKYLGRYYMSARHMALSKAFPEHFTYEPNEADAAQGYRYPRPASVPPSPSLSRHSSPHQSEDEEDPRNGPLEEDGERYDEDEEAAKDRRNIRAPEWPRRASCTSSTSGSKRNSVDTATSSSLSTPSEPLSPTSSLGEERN
Sequence of hGYS1 enzyme (recombinant hGYS1/GN1 protein) (P46976 whole entry partner): as the sequence (P46976 whole entry partner) above

SMILES | IC50 [1] [nM] | IC50 [2] [nM] | IC50 [3] [nM]
O=C(N[C@@H](c1ccccc1)c1ccc(C2CC2)c(F)c1)[C@@H]1C[C@@H](F)CN1C(=O)Cc1cccn2c(=O)[nH]nc12 [Compound 482, (2S,4R)-N-[(S)-(4-cyclopropyl-3-fluorophenyl)(phenyl)methyl]-4-fluoro-1-(2-{3-oxo-2H,3H-[1,2,4]triazolo[4,3-a]pyridin-8-yl}acetyl) pyrrolidine-2-carboxamide] | 68 | 1410 | > 100000
CN(C)c1cnn(CC(=O)N2C[C@H](F)C[C@H]2C(=O)N[C@@H](c2ccccc2)c2ccc(C3CC3)c(F)c2)n1 [Compound 483, (2S,4R)-N-[(S)-(4-cyclopropyl-3-fluorophenyl)(phenyl)methyl]-1-{2-[4-(dimethylamino)-2H-1,2,3-triazol-2-yl]acetyl}-4-fluoropyrrolidine-2-carboxamide] | 49 | 720 | > 100000
CN(C)c1cn(CC(=O)N2C[C@H](F)C[C@H]2C(=O)N[C@@H](c2ccccc2)c2ccc(C3CC3)c(F)c2)nn1 [Compound 484, (2S,4R)-N-[(S)-(4-cyclopropyl-3-fluorophenyl)(phenyl)methyl]-1-{2-[4-(dimethylamino)-1H-1,2,3-triazol-1-yl]acetyl}-4-fluoropyrrolidine-2-carboxamide] | 66 | 820 | > 100000
CC(C)(C)OC(=O)NCc1nnc(CC(=O)N2C[C@H](F)C[C@H]2C(=O)N[C@@H](c2ccccc2)c2ccc(C3CC3)c(F)c2)o1 [Compound 485, tert-butyl N-[(5-{2-[(2S,4R)-2-{[(S)-(4-cyclopropyl-3-fluorophenyl)(phenyl)methyl]carbamoyl}-4-fluoropyrrolidin-1-yl]-2-oxoethyl}-1,3,4-oxadiazol-2-yl)methyl]carbamate] | 210 | 3720 | > 100000
CN1CCN(C(=O)NCC(=O)N2C[C@H](F)C[C@H]2C(=O)N[C@@H](c2ccccc2)c2ccc(C3CC3)c(F)c2)CC1 [Compound 486, N-{2-[(2S,4R)-2-{[(S)-(4-cyclopropyl-3-fluorophenyl)(phenyl)methyl]carbamoyl}-4-fluoropyrrolidin-1-yl]-2-oxoethyl}-4-methylpiperazine-1-carboxamide] | 41 | 1020 | > 100000
O=C(N[C@@H](c1ccccc1)c1ccc(C2CC2)c(F)c1)[C@@H]1C[C@@H](F)CN1C(=O)CNC(=O)N1CCN(CC(F)(F)F)CC1 [Compound 487, N-{2-[(2S,4R)-2-{[(S)-(4-cyclopropyl-3-fluorophenyl)(phenyl)methyl]carbamoyl}-4-fluoropyrrolidin-1-yl]-2-oxoethyl}-4-(2,2,2-trifluoroethyl) piperazine-1-carboxamide] | 68 | 2090 | > 100000
COCCN1CCN(C(=O)NCC(=O)N2C[C@H](F)C[C@H]2C(=O)N[C@@H](c2ccccc2)c2ccc(C3CC3)c(F)c2)CC1 [Compound 488, N-{2-[(2S,4R)-2-{[(S)-(4-cyclopropyl-3-fluorophenyl)(phenyl)methyl]carbamoyl}-4-fluoropyrrolidin-1-yl]-2-oxoethyl}-4-(2-methoxyethyl) piperazine-1-carboxamide] | 31 | 880 | > 100000
O=C(N[C@@H](c1ccccc1)c1ccc(C2CC2)c(F)c1)[C@@H]1C[C@@H](F)CN1C(=O)CNC(=O)N1CCN(CC2CC2)CC1 [Compound 490, N-{2-[(2S,4R)-2-{[(S)-(4-cyclopropyl-3-fluorophenyl)(phenyl)methyl]carbamoyl}-4-fluoropyrrolidin-1-yl]-2-oxoethyl}-4-(cyclopropylmethyl) piperazine-1-carboxamide] | 52 | 2870 | > 100000
O=C(N[C@@H](c1ccccc1)c1ccc(C2CC2)c(F)c1)[C@@H]1C[C@@H](F)CN1C(=O)Cc1n[nH]c(=O)[nH]1 [Compound 491, (2S,4R)-N-[(S)-(4-cyclopropyl-3-fluorophenyl)(phenyl)methyl]-4-fluoro-1-[2-(5-oxo-4,5-dihydro-1H-1,2,4-triazol-3-yl)acetyl]pyrrolidine-2-carboxamide] | 93 | 5550 | > 100000
O=C(N[C@@H](c1ccccc1)c1ccc(C2CC2)c(F)c1)[C@@H]1C[C@@H](F)CN1C(=O)Cc1noc(=O)[nH]1 [Compound 492, (2S,4R)-N-[(S)-(4-cyclopropyl-3-fluorophenyl)(phenyl)methyl]-4-fluoro-1-[2-(5-oxo-4,5-dihydro-1,2,4-oxadiazol-3-yl)acetyl]pyrrolidine-2-carboxamide] | 138 | > 30000 | > 100000
O=C(N[C@@H](c1ccccc1)c1ccc(C2CC2)c(F)c1)[C@@H]1C[C@@H](F)CN1C(=O)CNC(=O)N1CC(F)(F)C1 [Compound 495, (2S,4R)-N-[(S)-(4-cyclopropyl-3-fluorophenyl)(phenyl)methyl]-1-{2-[(3,3-difluoroazetidine-1-carbonyl)amino]acetyl}-4-fluoropyrrolidine-2-carboxamide] | 66 | 1500 | > 100000
O=C(N[C@@H](c1ccccc1)c1ccc(C2CC2)c(F)c1)[C@@H]1C[C@@H](F)CN1C(=O)CNC(=O)N1CC(C(F)(F)F)C1 [Compound 496, (2S,4R)-N-[(S)-(4-cyclopropyl-3-fluorophenyl)(phenyl)methyl]-4-fluoro-1-(2-{[3-(trifluoromethyl)azetidine-1-carbonyl]amino}acetyl) pyrrolidine-2-carboxamide] | 86 | 1820 | > 100000
CCn1c(=O)c(C)cn(CC(=O)N2C[C@H](F)C[C@H]2C(=O)N[C@@H](c2ccccc2)c2ccc(C3CC(F)(F)C3)c(F)n2)c1=O [Compound 501, (2S,4R)—N—((S)-(5-(3,3-difluorocyclobutyl)-6-fluoropyridin-2-yl)(phenyl)methyl)-1-(2-(3-ethyl-5-methyl-2,4-dioxo-3,4-dihydropyrimidin-1(2H)-yl)acetyl)-4-fluoropyrrolidine-2-carboxamide] | 3 | 50 | > 100000
Cc1nn(CC(=O)N2C[C@H](F)C[C@H]2C(=O)N[C@@H](c2ccccc2)c2ccc(C3CC(F)(F)C3)c(F)n2)c(=O)o1 [Compound 502, (2S,4R)-N-[(S)-[5-(3,3-difluorocyclobutyl)-6-fluoropyridin-2-yl](phenyl)methyl]-4-fluoro-1-[2-(5-methyl-2-oxo-2,3-dihydro-1,3,4-oxadiazol-3-yl)acetyl]pyrrolidine-2-carboxamide] | 10 | 170 | > 100000
O=C(N[C@@H](c1ccccc1)c1ccc(C2CC(F)(F)C2)c(F)n1)[C@@H]1C[C@@H](F)CN1C(=O)CNC(=O)N1CCC1 [Compound 503, (2S,4R)-1-{2-[(azetidine-1-carbonyl)amino]acetyl}-N-[(S)-[5-(3,3-difluorocyclobutyl)-6-fluoropyridin-2-yl](phenyl)methyl]-4-fluoropyrrolidine-2-carboxamide] | 8 | 240 | > 100000
O=C(N[C@@H](c1ccccc1)c1ccc(C2CC(F)(F)C2)c(F)n1)[C@@H]1C[C@@H](F)CN1C(=O)Cn1cnc2ccccc21 [Compound 504, (2S,4R)-1-[2-(1H-1,3-benzodiazol-1-yl)acetyl]-N-[(S)-[5-(3,3-difluorocyclobutyl)-6-fluoropyridin-2-yl](phenyl)methyl]-4-fluoropyrrolidine-2-carboxamide] | 3 | 60 | > 100000
